Earlier results in patent US20240156825A1, “USE OF SELECTIVE VEGFR2 AND FGFR1 INHIBITORS” (Fountain Therapeutics Inc., priority 2022, published 2024).
Where two headings read alike, the source gives them in different places.

Experiments:
VEGFR2 = VEGFR2 (Homo sapiens, UniProt P35968); details: reported IC50 to VEGFR2, read-out: VEGFR2 IC50_μM, cited from earlier work
any gene target = details: read-out: Min IC50_μM, cited from earlier work
[1] = next lowest IC50 value to any gene target
[2] = Table 2, lowest reported IC50 to any gene target
[3] = lowest reported IC50 to any gene target

Sequence of VEGFR2 (P35968 20-1356, species assumed): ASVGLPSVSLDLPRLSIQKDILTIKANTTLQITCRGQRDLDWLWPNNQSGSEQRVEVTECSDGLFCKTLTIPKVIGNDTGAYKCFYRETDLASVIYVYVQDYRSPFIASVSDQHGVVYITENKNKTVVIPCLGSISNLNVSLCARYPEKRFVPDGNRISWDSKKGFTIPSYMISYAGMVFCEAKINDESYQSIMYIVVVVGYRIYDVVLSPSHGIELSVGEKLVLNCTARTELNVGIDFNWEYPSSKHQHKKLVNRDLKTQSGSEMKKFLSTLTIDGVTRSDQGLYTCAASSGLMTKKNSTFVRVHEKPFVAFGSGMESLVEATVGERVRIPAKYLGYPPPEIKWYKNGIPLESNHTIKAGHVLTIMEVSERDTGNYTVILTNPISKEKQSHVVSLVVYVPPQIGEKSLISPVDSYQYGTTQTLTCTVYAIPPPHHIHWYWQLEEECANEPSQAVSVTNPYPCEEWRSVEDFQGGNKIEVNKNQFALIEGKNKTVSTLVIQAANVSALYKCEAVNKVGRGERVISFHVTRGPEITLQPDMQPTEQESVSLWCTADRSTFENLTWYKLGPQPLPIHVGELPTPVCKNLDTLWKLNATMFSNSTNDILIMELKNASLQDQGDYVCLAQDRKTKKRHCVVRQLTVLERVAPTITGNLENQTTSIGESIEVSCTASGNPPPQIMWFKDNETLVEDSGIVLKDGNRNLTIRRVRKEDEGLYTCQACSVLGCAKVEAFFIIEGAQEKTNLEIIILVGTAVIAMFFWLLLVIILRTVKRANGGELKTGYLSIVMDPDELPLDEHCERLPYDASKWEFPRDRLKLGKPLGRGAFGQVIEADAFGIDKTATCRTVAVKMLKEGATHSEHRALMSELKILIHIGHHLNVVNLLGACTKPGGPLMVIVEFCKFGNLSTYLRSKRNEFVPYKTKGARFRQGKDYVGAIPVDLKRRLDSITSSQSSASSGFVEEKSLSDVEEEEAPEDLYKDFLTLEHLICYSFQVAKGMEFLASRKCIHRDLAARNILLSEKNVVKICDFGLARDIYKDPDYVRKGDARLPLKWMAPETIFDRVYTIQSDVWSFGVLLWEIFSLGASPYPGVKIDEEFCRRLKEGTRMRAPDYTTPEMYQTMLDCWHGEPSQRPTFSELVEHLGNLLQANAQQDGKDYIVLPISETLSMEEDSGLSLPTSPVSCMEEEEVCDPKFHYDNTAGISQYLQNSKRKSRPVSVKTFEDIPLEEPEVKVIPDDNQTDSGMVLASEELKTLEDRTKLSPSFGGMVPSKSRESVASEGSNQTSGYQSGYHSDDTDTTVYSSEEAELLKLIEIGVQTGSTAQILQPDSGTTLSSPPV

| Structure (SMILES) | IC50 (any gene target; [1]) [nM] | IC50 (any gene target; [2]) [nM] | also measured |
| --- | --- | --- | --- |
| Oc1cc(O)c2cc(O)c(-c3cc(O)c(O)c(O)c3)[o+]c2c1 [compound 68245] | 6.27 |  | IC50 (VEGFR2): 5.09 nM |
| CN1CC(=Cc2ccccn2)C(=O)C(=Cc2ccccn2)C1 [compound 2132479] | 1900 |  | IC50 (VEGFR2): 1300 nM |
| COc1cc2c(Nc3ccc(Cl)cc3F)ncnc2cc1OCCN1CCN(C)CC1 [compound 4913175] | 100 |  | IC50 (VEGFR2): 30 nM |
| COCCOc1cc2ncnc(Nc3ccc(Cl)cc3F)c2cc1OC [compound 5329011] | 40 |  | IC50 (VEGFR2): 7 nM |
| COCCOc1cc2ncnc(Nc3cc(O)c(Cl)cc3F)c2cc1OC [compound 5329013] |  |  | IC50 (VEGFR2; Table 3, selective inhibitors of VEGFR2): 2 nM; IC50 (any gene target; next lowest IC50 value to any gene target, Table 3): 2 nM |
| COc1cc2c(Nc3ccc(Cl)cc3F)ncnc2cc1OCCN1CCOCC1 [compound 5329019] | 300 |  | IC50 (VEGFR2): 40 nM |
| COc1cc2c(Nc3ccc(Cl)cc3F)ncnc2cc1OCCCN1CCOCC1 [compound 5329020] | 50 |  | IC50 (VEGFR2): 9 nM |
| COc1cc2c(Nc3ccc(Cl)cc3F)ncnc2cc1OCCN(C)c1ccncc1 [compound 5329026] | 100 |  | IC50 (VEGFR2): 6 nM |
| COc1cc2c(Nc3ccc(Br)cc3F)ncnc2cc1OCCn1ccnn1 [compound 5329032] |  |  | IC50 (VEGFR2): 30 nM |
| COc1cc2c(Nc3ccc(C#N)cc3F)ncnc2cc1OC/C=C/CN1CCCC1 [compound 5329040] | 500 |  | IC50 (VEGFR2): 230 nM |
| COc1cc2c(Nc3ccc(C)cc3F)ncnc2cc1OCC1CCN(C)CC1 [compound 5329042] | 65 |  | IC50 (VEGFR2): 25 nM |
| COc1cc2c(Nc3c(F)cc(Cl)cc3F)ncnc2cc1OCC1CCN(C)CC1 [compound 5329045] | 60 |  | IC50 (VEGFR2): 25 nM |
| COc1cc2c(Nc3c(F)cc(Br)cc3F)ncnc2cc1OCC1CCN(C)CC1 [compound 5329046] | 100 |  | IC50 (VEGFR2): 10 nM |
| COc1cc2c(Nc3ccc(C)cc3F)ncnc2cc1OCC1CCNCC1 [compound 5329049] | 250 |  | IC50 (VEGFR2): 30 nM |
| COc1cc2c(Nc3c(F)cc(Cl)cc3F)ncnc2cc1OCC1CCNCC1 [compound 5329050] | 100 |  | IC50 (VEGFR2): 40 nM |
| COc1cc2c(Nc3c(F)cc(Br)cc3F)ncnc2cc1OCC1CCNCC1 [compound 5329051] | 70 |  | IC50 (VEGFR2): 15 nM |
| COc1cc2c(Nc3ccc(Cl)cc3F)ncnc2cc1OCCC1CCN(C)CC1 [compound 5329052] | 70 |  | IC50 (VEGFR2): 55 nM |
| COc1cc2c(Nc3ccc(Br)cc3F)ncnc2cc1OCCC1CCN(C)CC1 [compound 5329053] | 60 |  | IC50 (VEGFR2): 6 nM |
| COc1cc(OC)cc(N(CCN(Cc2ccc(N)cc2)C(C)C)c2ccc3ncc(-c4cnn(C)c4)nc3c2)c1 [compound 89447175] |  | 5.89 |  |
| COc1cc(OC)cc(N(CCCN2C[C@@H](C)O[C@@H](C)C2)c2ccc3ncc(-c4cnn(C)c4)nc3c2)c1 [compound 89447204] |  | 3.55 |  |
| COc1cc(OC)cc(N(CCN2[C@@H](C)CC[C@@H]2C)c2ccc3ncc(-c4cnn(C)c4)nc3c2)c1 [compound 89447247] |  |  | IC50 (any gene target; [3]): 3.8 nM |
| COc1cc(OC)cc(N(CC#Cc2cc(C(N)=O)ccn2)c2ccc3ncc(-c4cnn(C)c4)nc3c2)c1 [compound 89447328] |  | 2.46 |  |
| COc1cccnc1C#CCN(c1ccc2ncc(-c3cnn(C)c3)nc2c1)c1c(Cl)c(OC)cc(OC)c1Cl [compound 89447340] |  | 5.89 |  |

| Structure (SMILES) | IC50 (any gene target; [1]) [nM] | IC50 (any gene target; [2]) [nM] | also measured |
| --- | --- | --- | --- |
| COc1cc(OC)cc(N(CC#Cc2cc(CO)ccn2)c2ccc3ncc(-c4cnn(C)c4)nc3c2)c1 [compound 89447343] |  | 3.39 |  |
| COc1cc(OC)cc(N(CC#Cc2nccnc2Cl)c2ccc3ncc(-c4cnn(C)c4)nc3c2)c1 [compound 89447345] |  | 15.8 |  |
| COc1cc(OC)cc(N(CCN2CCN(C(=O)C3CC3)CC2)c2ccc3ncc(-c4cnn(C)c4)nc3c2)c1 [compound 89447346] |  |  | IC50 (any gene target; [3]): 7.76 nM |
| COc1cc(OC)cc(N(CCCN2[C@H](C)CC[C@@H]2C)c2ccc3ncc(-c4cnn(C)c4)nc3c2)c1 [compound 89447423] |  |  | IC50 (any gene target; [3]): 3.24 nM |
| COc1cc(OC)cc(N(CC#Cc2cnccn2)c2ccc3ncc(-c4cnn(C)c4)nc3c2)c1 [compound 89447472] |  |  | IC50 (any gene target; [3]): 17.8 nM |
| COc1cc(OC)cc(N(CC#Cc2cc(N)ccn2)c2ccc3ncc(-c4cnn(C)c4)nc3c2)c1 [compound 89447499] |  | 2.95 |  |
| COc1cc(OC)cc(N(CC#CC2(O)CCNCC2)c2ccc3ncc(-c4cnn(C)c4)nc3c2)c1 [compound 89447547] |  |  | IC50 (any gene target; [3]): 7.08 nM |
| COc1cc(OC)cc(N(CCNC(C)C)c2ccc3ncc(-c4cnn(C)c4)nc3c2)c1 [compound 118014709] |  | 2.29 |  |
| C=CC(=O)N1CCN(CCCn2c(=O)c(-c3c(Cl)c(OC)cc(OC)c3Cl)cc3cnc(NC)nc32)CC1 [compound 118295624] |  | 1.3 |  |
| COc1cc2nccc(Oc3ccc(NC(=O)Nc4cc(C)on4)c(Cl)c3)c2cc1OC [compound 118737468] | 3.26 |  |  |
| c1ccc(-c2cnc3c(Nc4ccc(N5CCCCC5)cc4)cncc3n2)cc1 [compound 127030424] | 2340 |  |  |
| CNCCN(c1cc(OC)cc(OC)c1)c1ccc2ncc(-c3cnn(CC(=O)NC)c3)nc2c1 [compound 134131862] |  | 2.4 |  |
| CNC(=O)Cn1cc(-c2cnc3ccc(N(CCNC(C)C)c4cc(OC)cc(OC)c4)cc3n2)cn1 [compound 134132789] |  | 3.39 |  |
| CNCCN(c1cc(OC)cc(OC)c1)c1ccc2ncc(-c3cnn(C(C)C)c3)nc2c1 [compound 134133926] |  | 2.88 |  |
| COc1cc(OC)cc(N(CCCN2[C@H](C)CC[C@@H]2C)c2ccc3ncc(-c4cnn(C)c4)nc3c2)c1 [compound 134135888] |  | 2.51 |  |
| COc1cc(OC)cc(N(CCNC(C)C)c2ccc3ncc(-c4c(C)nn(C)c4C)nc3c2)c1 [compound 134138098] |  | 10.7 |  |
| COc1cccc(N(CCNC(C)C)c2ccc3ncc(-c4cnn(C)c4)nc3c2)c1 [compound 134138612] |  |  | IC50 (any gene target; [3]): 7.24 nM |
| COc1cc(F)cc(N(CCCN2CCCC2)c2ccc3ncc(-c4cn[nH]c4)nc3c2)c1 [compound 134140310] |  | 1.86 |  |
| CNC1CCN(CCCN(c2cc(OC)cc(OC)c2)c2ccc3ncc(-c4cnn(C)c4)nc3c2)C1 (stereo not drawn) [compound 134140450] |  | 2.24 |  |
| COc1cc(OC)cc(N(CCNC(C)C)c2ccc3ncc(-c4cnn(CC5CCOCC5)c4)nc3c2)c1 [compound 134141677] |  | 2.19 |  |
| COc1cc(OC)cc(N(CCCN2CCC(F)(F)C2)c2ccc3ncc(-c4cn[nH]c4)nc3c2)c1 [compound 134142457] |  | 10.5 |  |
| COc1cc(OC)cc(N(CCNC(C)C)c2ccc3ncc(-c4cnn(C5CCN(C)CC5)c4)nc3c2)c1 [compound 134142615] |  | 2.95 |  |
| COc1cc(OC)cc(N(CCCN2CCCC2)c2ccc3ncc(-c4cnn(CCO)c4)nc3c2)c1 [compound 134144550] |  | 1.91 |  |

| Structure (SMILES) | IC50 (any gene target; [1]) [nM] | IC50 (any gene target; [2]) [nM] | also measured |
| --- | --- | --- | --- |
| COc1cc(OC)c(C)c(N(CCCN2CCCC2)c2ccc3ncc(-c4cnn(C)c4)nc3c2)c1 [compound 134145340] |  | 3.55 |  |
| COc1cc(OC)cc(N(CCN2CCC[C@H]2C)c2ccc3ncc(-c4cnn(C)c4)nc3c2)c1 [compound 134145938] |  | 1.99 |  |
| COc1cc(OC)cc(N(CCN2CCCCC2C)c2ccc3ncc(-c4cnn(C)c4)nc3c2)c1 (stereo not drawn) [compound 134146514] |  | 2.51 |  |
| COc1cc(OC)cc(N(CCCN2CCC[C@H]2C)c2ccc3ncc(-c4cnn(C)c4)nc3c2)c1 [compound 134146811] |  | 2.14 |  |
| COc1cc(OC)c(C)c(N(CCNC(C)C)c2ccc3ncc(-c4cnn(C)c4)nc3c2)c1 [compound 134147170] |  | 6.46 |  |
| COc1cc(OC)cc(N(CCNC(C)C)c2ccc3ncc(-c4cn[nH]c4)nc3c2)c1 [compound 134148952] |  | 3.39 |  |
| CNCC(O)CN(c1cc(OC)cc(OC)c1)c1ccc2ncc(-c3cnn(C)c3)nc2c1 (stereo not drawn) [compound 134149546] |  |  | IC50 (any gene target; [3]): 2.82 nM |
| COc1cc(OC)cc(N(CCCN2CCCC2(C)C)c2ccc3ncc(-c4cnn(C)c4)nc3c2)c1 [compound 134151320] |  |  | IC50 (any gene target; [3]): 1.91 nM |
| COc1cc(OC)cc(N(CCN2CCCC2)c2ccc3ncc(-c4cn[nH]c4)nc3c2)c1 [compound 134153401] |  | 2.46 |  |
| COc1ccc(Cl)c(N(CCNC(C)C)c2ccc3ncc(-c4cnn(C)c4)nc3c2)c1 [compound 134153603] |  | 3.71 |  |
| COc1cc(F)cc(N(CCNC(C)C)c2ccc3ncc(-c4cn[nH]c4)nc3c2)c1 [compound 134153940] |  | 2.09 |  |
| COc1cc(OC)cc(N(CCN2CCC(O)C2)c2ccc3ncc(-c4cnn(C)c4)nc3c2)c1 (stereo not drawn) [compound 134154939] |  |  | IC50 (any gene target; [3]): 1.82 nM |
| COc1cc(OC)cc(N(CCCN2CCC(N3C[C@@H](C)O[C@@H](C)C3)C2)c2ccc3ncc(-c4cnn(C)c4)nc3c2)c1 (stereo partly drawn) [compound 134155786] |  | 4.57 |  |
| COc1cc(OC)cc(N(CCN2CCCC2)c2ccc3ncc(-c4cnn(C)c4)nc3c2)c1 [compound 134156523] |  | 1.78 |  |
| COc1ccc(OC)c(N(CCCN2CCCC2)c2ccc3ncc(-c4cnn(C)c4)nc3c2)c1 [compound 134157453] |  |  | IC50 (any gene target; [3]): 38 nM |
| COc1cc(OC)cc(N(CCNC(C)C)c2ccc3ncc(-c4cn[nH]c4)nc3c2)c1 [compound 134157816] |  | 2.82 |  |
| COc1cc(OC)cc(N(CCN2CCC(N)C2)c2ccc3ncc(-c4cnn(C)c4)nc3c2)c1 (stereo not drawn) [compound 134157853] |  | 1.99 |  |
| CCN(Cc1ccccc1)c1nc(O)nc(Nc2ccc3ncsc3c2)n1 [compound 135509841] | 400 |  |  |
| CC(C)(C)NC(=O)Nc1ccc2[nH]nc(-c3nc4ccc(N5CCC(N6CCCCC6)CC5)cc4[nH]3)c2c1 [compound 135819982] |  |  | IC50 (any gene target; [3]): 1 nM |
| CC(C)n1nc(-c2ccc3cc(O)ccc3c2)c2c(N)ncnc21 [compound 135947979] | 20 |  |  |
| COC(=O)c1ccc2c(C(=Nc3ccc(N4CCC(CN5CCN(C)CC5)C4=O)cc3)c3ccccc3)c(O)[nH]c2c1 (stereo not drawn) [compound 136299423] | 45 |  |  |
